Test results: US20090117089A1, “GLYCOLIPIDS AND ANALOGUES THEREOF AS ANTIGENS FOR NK T CELLS” (The Rockefeller University, priority 2005, published 2009)

System: Vα24i human NKT cell line
Test: In vitro cytokine secretion assay using human NKT cell lines
Assay type: cell-based
Conditions: CD14+ immature dendritic cells; 10 μg/ml glycolipid (1-10 μg/ml for 3-O-sulfo-α-galactosylceramide); 10 IU/ml IL-2
Protocol: (§1) Human NKT cell lines, expressing the Vα24i T cell receptor as well as CD161, were generated as follows: Anti-CD161 monoclonal antibodies, and anti-CD14 monoclonal antibodies, each coupled to magnetic beads (Miltenyi biotec, Auburn, Calif.), were used sequentially to isolate CD161^+ cells and CD14^+ cells from leukopaks. Immature dendritic cells were generated from the CD14^+ cells after a two-day incubation in the presence of 300 U/ml GM-CSF (R&D systems, Minneapolis, Minn.) and 100 U/ml IL-4 (R&D systems, Minneapolis, Minn.). Following irradiation with 2000 rads, the immature dendritic cells were co-cultured with syngeneic CD161^+ cells in the presence of 100 ng/ml of alpha-galactosylceramide and 10 IU/ml of IL-2 (Invitrogen, Carlsbad Calif.) for 10 to 14 days. After stimulating the CD161^+ cells a second time with alpha-galactosylceramide-pulsed, irradiated immature dendritic cells, NKT cell lines were shown by flow cytometry to express both CD161^+ and V 24i TCR (99% purity).
(§2) IFN-γ and IL-4 secretion by the Vα 24i human NKT cell line was determined by ELISA (BD Pharmingen, San Diego, Calif.) after culture for 16 hours. For these assays, 1×10^5 Vα 24i human NKT cells were co-cultured with 4×10^5 irradiated, immature CD14^+ dendritic cells, in the presence of the glycolipid compounds at 10 μg/ml in a 96-well flat-bottom plate.
as §1, with “of 100-0.1” for “of 100”
In some cases, Hela cells were transfected with a human CD1d construct [Xing et al. 2005. Bioorg Med Chem 13: 2907], and were used to present the glycolipids, via pulsing with the respective compounds at the indicated concentration, to NKT lines.
as §2, with “IFN-γ” for “IFN-γ and IL-4”

CCCCCCCCCCCCCCCCCCCCCCCCCC(=O)N[C@@H](CO[C@H]1O[C@H](CO)[C@H](O)[C@H](O)[C@H]1O)[C@H](O)[C@H](O)CCCCCCCCCCCCCC [α-GalCer, 2S,3S,4R-1-O(α-galactopyranosyl)-2(N-hexacosanoylamino)-1,3,4-octadecanetriol]
IFN-γ secretion: greater IFN-γ and IL-4 secretion | IL-4 secretion: greater IFN-γ and IL-4 secretion
